These results are taken from patent US20250154686A1, “COMPOUND LIBRARY” (CHUGAI SEIYAKU KABUSHIKI KAISHA, priority 2021, published 2025).

For the assay, the target named is T1, Bcl-2 protein (Recombinant Human Bcl-2 Protein) (Homo sapiens, UniProt P10415).
T1 construct: purchased Novus Biologicals NBP2-34889
In words: AS-MS evaluation of binding of the Example 4 mixture library (1200 compounds/well) to Bcl-2, ASMS ratio (%). The following applies: Bcl-2 protein; for ASMS ratio (%) n = 1: replicate n = 1; for ASMS ratio (%) n = 2: replicate n = 2. As for the experimental part: DMSO solutions (prepared into approximately 0.58 mM based on calculation from the average molecular weight of each mixture) of 12 types of mixtures that could each contain 100 compounds, i.e., mixAI-B4J-01, mixAI-B1M-01, mixAI-B1K-01, mixAI-BIO-01, mixAI-B1A-01, mixAI-B3A-01, mixAI-B21-01, mixAI-B2L-01, mixAI-B2N-01, mixAI-B2A-01, mixAI-B2Q-01, and mixAI-B2R-01, shown in Table AI-03-B4J-01, Table AI-03-B1M-01, Table AI-03-B1K-01, Table AI-03-B10-01, Table AI-03-B1A-01, Table AI-03-B3A-01, Table AI-03-B21-01, Table AI-03-B2L-01, Table AI-03-B2N-01, Table AI-03-B2A-01, Table AI-03-B2Q-01, and Table AI-03-B2R-01 described in Example 4, were respectively dispensed to a total of 12 wells of MICROPLATE, 96-well, PP, V-BOTTOM (Greiner Bio-One International GmbH, 651201). 70 nL each from the 12 wells was collected into any one well using LABCYTE ECHO® 555 acoustic dispensing system (Beckman Coulter, Inc.) to prepare a sample solution in a mixed state of 1200 compounds (the presence of 1152 compounds was already identified when the mixtures were prepared in Example 4). Further, Bcl-2 protein (Novus Biologicals, NBP2-34889, Recombinant Human Bcl-2 Protein, Lot E60145051) (19.2 μL) prepared at 20.9 μM in advance using a Tris-HCl buffer (25 mM Tris-HCl, pH 7.4, 150 mM NaCl, 0.025% Tween-20, and 1 mM DTT) was added to the well containing the dispensed 1200 compounds (the presence of 1152 compounds was already identified when the mixtures were prepared in Example 4) (final compound concentration: 20 nM, final Bcl-2 concentration: 20 μM), and the plate was incubated at 23° C. for 1 hour in the dark. Subsequently, 200 μL of an assay buffer (25 mM Tris-HCl, pH 7.4, 150 mM NaCl, 0.025% Tween-20, and 1 mM DTT) was centrifuged three times at 2000×G at 4° C. for 2 minutes using 96-well MacroSpin column, P-2 Material (Harvard Bioscience, Inc., 74-5655) that had been allowed to swell to condition the 96-well MacroSpin column. Subsequently, 20 μL of the sample thus incubated was added to the 96-well MacroSpin column, P-2 Material after the completion of conditioning, and SEC treatment was performed by centrifugation at 2000×G for 2 minutes. 32 μL of a 1:1 mixed solution of acetonitrile and methanol (LC/MS grade, FUJIFILM Wako Pure Chemical Corp.) was added to a flow-through liquid from SEC, and the mixture was centrifuged at 1800×G at 4° C. for 5 minutes. The supernatant was used as analysis sample ASMS (A). By a similar operation, a sample prepared at 1200 compounds/well and supplemented with only a Tris-HCl buffer containing no Bcl-2 protein was incubated under the same conditions as above, and the same organic solvent as above was added thereto without 96-well MacroSpin column treatment. A supernatant obtained by a centrifugation operation was used as STD (B). Next, by a similar operation, a sample prepared at 1200 compounds/well and supplemented with only a Tris-HCl buffer containing no Bcl-2 protein was incubated under the same conditions as above and treated with 96-well MacroSpin column in the same manner as above, and the same organic solvent as above was added thereto. A supernatant obtained by a centrifugation operation was used as BK (C). These samples were measured by reverse-phase LC/MS.
Then, the samples A, B and C were analyzed for the 1200 compounds using TraceFinder 5.1 (Thermo Fisher Scientific Inc.) and CHANCE Software (in-house), and an ASMS ratio (%) was calculated according to the following expression.
Although m/z of the MS peaks was confirmed down to four decimal places, 0 at the decimal level may be omitted in the description in Table AJ-01. For example, “587.0000” is also referred to as “587”, “587.1000” is also referred to as “587.1”, “587.1200” is also referred to as “587.12”, and “587.1230” is also referred to as “587.123”.

Setting [1] is: AS-MS, mixture of 1200 compounds/well.
[2] abbreviates: mixture library of 1200 compounds/well, compounds assigned by expected m/z.

T1 sequence (P10415 whole entry): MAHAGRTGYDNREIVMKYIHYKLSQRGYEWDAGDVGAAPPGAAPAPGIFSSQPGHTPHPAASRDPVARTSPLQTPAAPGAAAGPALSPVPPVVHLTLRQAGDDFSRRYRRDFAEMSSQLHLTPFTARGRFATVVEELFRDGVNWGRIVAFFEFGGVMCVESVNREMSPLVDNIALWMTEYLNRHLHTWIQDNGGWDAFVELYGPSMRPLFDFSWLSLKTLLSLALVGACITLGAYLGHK

Consider “4-[4-[[2-[2-(3-Ethoxyphenyl)ethynyl]phenyl]methyl]piperazin-1-yl]-N-propylbenzamide [Compound B1M052-01]”, for which, under setting [1], the “ASMS ratio (%) n = 1” value is given as 27.6% and the “ASMS ratio (%) n = 2” value was 20.2%.

With “4-[4-[[4-(3-Ethoxyphenyl)-3-fluorophenyl]methyl]piperazin-1-yl]-N-propylbenzamide [Compound B1M079-01]”, under setting [1], the “ASMS ratio (%) n = 1” value came out at 8.1%.

In the case of “4-[4-[[4-(3-Ethoxyphenyl)-3-methylphenyl]methyl]piperazin-1-yl]-N-propylbenzamide [Compound B1M058-01]”, under setting [1], the “ASMS ratio (%) n = 1” value is on record as −1.4%.

As for “4-[4-[[4-(5-Ethoxypyridin-3-yl)-2-ethylphenyl]methyl]piperazin-1-yl]-N-propylbenzamide [Compound B1M075-01]”, under setting [1], the “ASMS ratio (%) n = 1” value stood at 77.3% and the “ASMS ratio (%) n = 2” value came to 46.1%.

As to “6-[4-[[2-(5-Ethoxypyridin-3-yl)phenyl]methyl]piperazin-1-yl]-N-propylpyridazine-3-carboxamide [Compound B1M043-01]”, the “ASMS ratio (%) n = 1” value under setting [1] turned out to be 2.2%.

Take `CCOc1cncc(-c2cc(C(=O)N3CCN(c4ccc(C(=O)NCC56CC7CC(CC(C7)C5)C6)nn4)CC3)cc(C(C)(C)C)c2)c1` [Compound B1A016-01, N-(1-Adamantylmethyl)-6-[4-[3-tert-butyl-5-(5-ethoxypyridin-3-yl)benzoyl]piperazin-1-yl]pyridazine-3-carboxamide]: the “ASMS ratio (%) n = 2” value under setting [2] is −4. %.

As to `CCOc1cccc(-c2cc(CN3CCN(c4ccc(C(=O)NCC56CC7CC(CC(C7)C5)C6)nn4)CC3)cc(OCC)c2)c1` [Compound B1A081-01, N-(1-Adamantylmethyl)-6-[4-[[3-ethoxy-5-(3-ethoxyphenyl)phenyl]methyl]piperazin-1-yl]pyridazine-3-carboxamide], the “ASMS ratio (%) n = 2” value under setting [2] is recorded as −5. %.

Take `CCOc1cccc(-c2cc(CN3CCN(c4ccc(C(=O)NCC(F)(F)F)cc4)CC3)cc(OC(F)(F)F)c2)c1` [Compound B1K063-01, 4-[4-[[3-(3-Ethoxyphenyl)-5-(trifluoromethoxy)phenyl]methyl]piperazin-1-yl]-N-(2,2,2-trifluoroethyl)benzamide]: under setting [1], the “ASMS ratio (%) n = 1” value was 3.9% and the “ASMS ratio (%) n = 2” value is given as 0.4%.

With `CCCNC(=O)c1ccc(N2CCN(C(=O)c3ccc(-c4cccc(OCC)c4)c(C)c3)CC2)nn1` [Compound B1M003-01], under setting [1], the “ASMS ratio (%) n = 1” value was −1.9% and the “ASMS ratio (%) n = 2” value came out at 2.0%.

With `CCCNC(=O)c1ccc(N2CCN(C(=O)c3ccc(-c4cncc(OCC)c4)c(C)c3)CC2)nn1` [Compound B1M004-01], under setting [1], the “ASMS ratio (%) n = 1” value is 0.0% and the “ASMS ratio (%) n = 2” value came to 0.0%.

In the case of `CCCNC(=O)c1ccc(N2CCN(C(=O)c3ccc(-c4cncc(OCC)c4)c(F)c3)CC2)nn1` [Compound B1M006-01], under setting [1], the “ASMS ratio (%) n = 1” value stood at 0.0% and the “ASMS ratio (%) n = 2” value stood at 0.0%.

In the case of `CCCNC(=O)c1ccc(N2CCN(C(=O)c3ccccc3C#Cc3cccc(OCC)c3)CC2)nn1` [Compound B1M007-01], under setting [1], the “ASMS ratio (%) n = 1” value was 0.3% and the “ASMS ratio (%) n = 2” value is reported as 0.3%.

As for `CCCNC(=O)c1ccc(N2CCN(C(=O)c3ccccc3C#Cc3cncc(OCC)c3)CC2)nn1` [Compound B1M008-01], the “ASMS ratio (%) n = 2” value under setting [1] was found to be 0.0%.

Take `CCCNC(=O)c1ccc(N2CCN(C(=O)c3cncc(C#Cc4cccc(OCC)c4)c3)CC2)nn1` [Compound B1M009-01]: under setting [1], the “ASMS ratio (%) n = 2” value turned out to be 0.0%.

As for `CCCNC(=O)c1ccc(N2CCN(C(=O)c3cncc(C#Cc4cncc(OCC)c4)c3)CC2)nn1` [Compound B1M010-01], under setting [1], the “ASMS ratio (%) n = 1” value amounted to 0.0% and the “ASMS ratio (%) n = 2” value worked out at 0.0%.

For `CCCNC(=O)c1ccc(N2CCN(C(=O)CCc3ccccc3-c3cccc(OCC)c3)CC2)nn1` [Compound B1M011-01], under setting [1], the “ASMS ratio (%) n = 1” value was found to be 18.6% and the “ASMS ratio (%) n = 2” value is 7.5%.
